Measured values: patent US20240277767A1, “METHODS AND USES” (PROLEUKOCYTE AB, priority 2021, published 2024)

Columns and labels:
Format in all cases: cell-based, human
ANRU TIL [1] = assay: ANRU TIL exposed to activated autologous monocytes: spheroid caspase activation and IFNγ release; conditions: for Caspase activity in spheroids co-cultured with TIL exposed to activated autologous monocytes: highest dose of AUF, vs untreated control TIL
Experimental: (§1) For Nrf2 inhibition, NK cells were treated with 50 μM ML-385 (Sigma-Aldrich) in parallel. For H2O2 treatment, lymphocyte cells were washed and resuspended to 1×10^6 cells/mL in medium and exposed to indicated H2O2 (Sigma-Aldrich) concentration for 1 h at 37° C. Cells were washed with medium and then used for further experiments. For monocyte experiments, autologous NK cell-monocytes or TIL-monocytes were used. NK cells/TIL were isolated and pre-treated with 0.5 μg/mL AUF, as described above, and co-cultured with unstimulated at the ratio, 1:2 M:NK, or stimulated monocytes at the ratio, 1:1 M:NK, if not indicated otherwise. Stimulated monocytes were activated with 100 ng/ml PMA for 1 min, washed and added at indicated ratio, the number of NK cell/TIL was kept constant. As control, H2O2 was used at indicated concentration. Cells were co-cultured for 2 h and then effector cells were stained for intracellular ROS (see flow cytometry) or used as effector cells in Cr^51 release assay (E:T ratio 10:1).
(§2) For cytokine release assay, NK cells and TIL were cultured with indicated tumour cells at the effector target ratio 4:1 (E:T) for 24 h in U-bottom plates. IFNγ secretion was measured using human IFN-γ ELISA development kit (Mabtech) following the manufacturer's instructions.
(§3) 5000 ANRU tumour cells were seeded per well in Ultra-Low Attachment 96-well plates (Corning Costar) in culture medium containing 2% Matrigel (Corning) for 3 days. 1×10^4AUF pre-treated TIL (see above), and spheroids were co-cultured and monitored for 48 h with the IncuCyte live cell imaging system (Essen Bioscience) in the presence of CellEvent™ Caspase 3/7 Green detection agent (Invitrogen).

NK cells [2] = assay: Degranulation (CD107a) and IFNγ expression of NK cells co-cultured with K562 cells (flow cytometry); conditions: for Degranulation capacity (CD107a expression) of NK cells after co-culture with K562: with and without induction of oxidative stress (H2O2)
Experimental: Lymphocytes were isolated and pre-treated when indicated, with compound and H2O2, as described above. For degranulation/measuring CD107a expression, NK cells were co-cultured with K562 tumour cells at an effector target ratio 1:1 in the presence of anti-CD107a in U-bottom plates. After 2 h, GolgiStop™ and GolgiPlug™ (BD Bioscience) were added and cells were harvested after an additional 4 h co-culture and stained for CD56 and CD3, as described above. For positive control, 25 ng/ml PMA (Sigma Aldrich) and 500 ng/mL Ionomycin (Sigma Aldrich) were added.
Lymphocytes were isolated and pre-treated when indicated, with compounds and/or H2O2, as described above. For degranulation assay, NK cells were co-cultured with K562 cells (E:T ratio 1:1) in the presence of anti-CD107a FITC antibody. After 2 h, GolgiStop™ and GolgiPlug™ (BD Bioscience) were added and cells were harvested after an additional 4 h co-culture and stained for CD56, CD3 and anti-IFNγ, as described above. As a positive control, 25 ng/ml PMA (Sigma Aldrich) and 500 ng/ml Ionomycin (Sigma Aldrich) were added.

NK cells [3] = assay: IFNγ release (ELISA) by pre-treated NK cells after H2O2 exposure
Experimental: (§4) Lymphocytes were pre-treated for 18 h with Auranofin (AUF, with the concentration 1 μg/mL for NK cells and 0.5 μg/mL for TIL, if not indicated differently), DL-Sulforaphane (SUL) or Dimethyl Fumarate (DMF) (all Sigma-Aldrich) at indicated concentrations.
as §1, with “Cells were co-cultured for 2 h and then effector cells were stained for intracellular ROS (see flow cytometry) or used as effector cells in Cr^51 release assay (E:T ratio 10:1).” left out
as §2

ANRU TIL [4] = assay: 3D killing assay: ANRU TIL on autologous tumour spheroids (Caspase 3/7, live cell imaging); conditions: 48 h co-culture, vs controls
Experimental: as §3

ANRU TIL [5] = assay: Viability of pre-treated ANRU TIL after H2O2 exposure (flow cytometry); conditions: 24 h co-culture with ANRU tumour cells, alive CD3+ T cells
Experimental: as §4
as §1, with “Cells were co-cultured for 2 h and then effector cells were stained for intracellular ROS (see flow cytometry) or used as effector cells in Cr^51 release assay (E:T ratio 10:1).” left out
(§5) All antibodies (see Table 1) and FACS reagents were used according to manufactures recommendation, if not stated otherwise. […] Samples were fixed with 2% PFA (Thermo scientific) for 15 min before acquired on a NovoCyte (ACEA Biosciences) and analysed using FlowJo Software (TreeStar).

NK cells [6] = assay: Viability of pre-treated NK cells after H2O2 treatment (flow cytometry); conditions: alive NK cells 4 h after H2O2 treatment, vs untreated NK cells
Experimental: as §4
as §1, with “Cells were co-cultured for 2 h and then effector cells were stained for intracellular ROS (see flow cytometry) or used as effector cells in Cr^51 release assay (E:T ratio 10:1).” left out
as §5

NK cells [7] = assay: NK cells co-cultured with PMA-activated autologous monocytes: intracellular ROS and K562 lysis
Experimental: as §1
Monocytes were stimulated with 100 ng/ml PMA for 1 min and washed with HBSS (Gibco). Cells were resuspended in HBSS 5% FBS and added to a 96-well Optiplate (Perkin Elmer) containing HBSS 5% FBS and Luminol (56 μM; Sigma). Luminescence was measured immediately using a EnSpire plate reader (Perkin Elmer).
For detection of intracellular ROS levels, for NK cells CellROX™ Deep Red Reagent (Invitrogen) were used. Briefly, NK cells were stained with 2.5 μM CellROX solution in RPMI for 30 min at 37° C. and then stained for flow cytometry with anti-CD56 and anti-CD3 (both Biolegend).
For cytotoxic assay, a standard 4 h [Cr^51]-release assay was used. Briefly, tumour cells were harvested and labeled with 51Cr (PerkinElmer) and used as target cells. Effector cells, NK cells and T cells, were co-cultured in 96-well V-bottom plate with indicated tumour cells at the stated effector target ratio (E:T). The supernatant was collected onto LUMA plates (Perkin-Elmer) and radioactivity/tumour cell lysis was detected by MicroBeta2 (Perkin Elmer). Target cell killing measured by % specific lysis and calculated using the formula: ((experimental release-spontaneous release)/(maximum release-spontaneous release))*100.

[8] = system: Nrf2 target genes (NQO1, HMOX1, TXNRD1, Keap1); assay: qPCR of classical Nrf2 target genes in NK cells
Experimental: Lymphocytes were pre-treated with AUF, SUL or DMF as described above. RNA was isolated using TRIzol™ Plus RNA Purification Kit (Invitrogen). cDNA was generated using the iScript™ cDNA Synthesis Kit (Bio-Rad) and qPCR was done using iTaq™ Universal SYBR® Green Supermix (Bio-Rad) in the CFX96 Touch Real-Time PCR Detection System (Bio-Rad). Fold change expression from untreated cells was calculated using the 2^-ΔΔCt formula with b-actin as reference gene. Evaluated genes were NAD(P)H Quinone Dehydrogenase 1 (NQO1), Kelch Like ECH Associated Protein 1 (Keap1), Heme Oxygenase 1 (HMOX1) and Thioredoxin Reductase 1 (TXNRD1).

## CC(=O)OC[C@H]1O[C@@H]([S-])[C@H](OC(C)=O)[C@@H](OC(C)=O)[C@@H]1OC(C)=O.CCP(CC)CC.[Au+] [AUF, Auranofin]
ANRU TIL [1]; 2D grown ANRU tumour cells
  Cytokine release (IFNγ) by TIL impaired by monocyte derived ROS: partially be rescued
ANRU TIL [1]
  Caspase activity in spheroids co-cultured with TIL exposed to activated autologous monocytes: increased caspase activity
ANRU TIL [1]; listed as auranofin
  Caspase activity in spheroids co-cultured with TIL exposed to activated autologous monocytes: increased elimination of spheroid grown tumour cells
NK cells [2]; during oxidative stress, 6 h co-culture with K562
  Difference in protective effect on different NK cell functions (CD107a degranulation vs IFNγ expression): no difference
NK cells [2]
  Degranulation capacity (CD107a expression) of NK cells after co-culture with K562: protective effect was observed both in the presence or absence of H2O2
NK cells [2]; listed as Auranofin
  Degranulation capacity (CD107a expression) of NK cells after co-culture with K562: increased degranulation capacity
NK cells [3]; NK cells, IFNγ release
  Difference between 18 h and 24 h pre-treatment or 30 min pulse followed by 17.5 h incubation: no difference
NK cells [3]; vs untreated NK cells
  Cytokine release (IFNγ) capacity of NK cells following exposure to H2O2: improved
ANRU TIL [4]
  Capacity of ANRU TIL to induce apoptosis in spheroid tumour cells (Caspase 3/7): significantly increased capacity to induce apoptosis
ANRU TIL [5]
  Viability of ANRU TIL after exposure to H2O2: improved viability
NK cells [6]
  Viability of NK cells following exposure to H2O2: improved viability
NK cells [7]
  Protection of NK cells from monocyte-derived ROS: protects NK cells from monocyte-derived ROS
NK cells [7]; 0.5 μg/mL AUF, 2 h co-culture, vs controls
  Intracellular ROS in NK cells co-cultured with activated monocytes: significantly lower levels of intracellular ROS
NK cells [7]; also at the highest monocyte to NK cell ratio
  Killing of K562 target cells by NK cells co-cultured with activated monocytes: significantly higher efficiency
[8]
  Time of HMOX1 expression peak in NK cells: 6 h
[8]; already at 1 h
  HMOX1 expression in NK cells (fold change vs untreated): pronounced upregulation
[8]; kinetic
  Expression of the other Nrf2 target genes in NK cells (fold change vs untreated): more gradually increased over time
